According to US10160972B2, “Methods and materials for treating cancer” (Mayo Foundation for Medical Education and Research, priority 2012, dated 2018):

What was measured:
[1] = test system: MiaPaca cells; test: Cell number growth inhibition assay; format: cell-based, human; settings: cell number as percent of DMSO control
Method: (§1) A number of cancer cell lines were tested to determine whether SCD1 protein expression correlates with growth inhibition of an SCD1 inhibitor in human cancer cell lines.
(§2) Cells (20,000/ml) were plated in 12 well cell culture plates, allowed to attach and treated with the indicated dose of SCD1 inhibitor ([…]) or standard of care (gemcitabine). Cell number was counted using a Coulter Counter. As show in FIG. 7, the data are expressed as percent of DMSO control. Each value represents triplicates. Western analysis for SCD1 protein expression was performed on each cell line with beta-actin as the loading control.

[2] = test system: Panc cells; test: Cell number growth inhibition assay; format: cell-based, human
Method: as §1, §2

[3] = test system: Caki1 ccRCC cell line; settings: read-out: IC50, decrease in proliferation; Caki1, day 5
Method: (§3) ccRCC cell lines: RWV366T and KIJ265T (16) (both stage IV ccRCC patient tissue derived), A498, Caki1, Caki2, and ACHN (ATCC) and K347N, K355N, K359N, K360N, K365N, and K366N normal renal tissue derived mortal cells (NRE) were cultured in DMEM medium (Cellgro) containing 5% FBS (Hyclone) and 1× penicillin-streptomycin (Invitrogen) at 37° C. in humidified conditions with 5% CO2.
(§4) Cells were plated (0.5 or 1×10^5/well) in 24-well plates for proliferation or treatment assays, in triplicate. Cells were trypsinized (0.25%) and counted using a Coulter Particle Counter at specified time intervals. For SCD1 rescue assays, oleic acid-albumin was added to media at 5 μM. Drug stocks were prepared in DMSO. […] Temsirolimus dosing was performed as described in the text. Soft agar cultures were prepared by diluting 2× growth medium 1:1 in 1.5% Seaplaque®GTG® agarose, with 500 cells/plate in 60 mm culture dishes. Colonies were stained with Giemsa (LabChem Inc.) and counted after 3 wks. Cell images were obtained with an OlympusIX71 microscope at 20× magnification.

[4] = test system: A498 ccRCC cell line; settings: read-out: IC50, decrease in proliferation; A498, day 5
Method: as §3, §4

[5] = test system: Caki2 ccRCC cell line; settings: read-out: IC50, decrease in proliferation; Caki2, day 5
Method: as §3, §4

[6] = test system: ACHN ccRCC cell line; settings: read-out: IC50, decrease in proliferation, day 5
Method: as §3, §4

[7] = test system: Caki1, A498, Caki2, and ACHN ccRCC cell lines; test: OA-BSA rescue of growth inhibition; format: cell-based, human; settings: IC50 doses of A939572 + OA-BSA vs DMSO+BSA control, all four cell lines
Method: Drug stocks were prepared in DMSO. Monotherapeutic treatment identified drug dose-response. […] Temsirolimus dosing was performed as described in the text.

[8] = test system: Caki1, A498, Caki2, and ACHN ccRCC cells; test: Gene array expression analysis; format: cell-based, human; settings: 75 nM, 24 hours, vs DMSO control
Method: Gene array expression analysis was performed using Affymetrix Human Genome U133 Plus 2.0 Array chip. The details of the data processing and methodology were previously described in (Tun H W, Marlow L A, von Roemeling C A, Cooper S J, Kreinest P, Wu K, et al. Pathway signature and cellular differentiation in clear cell renal cell carcinoma. PLoS One. 2010; 5:e10696). Gene expression data was deposited at Gene Expression Omnibus (Accession#GSE41485). Pathway analysis was performed using IPA (Ingenuity® Systems).

[9] = test system: Caki1, A498, Caki2, and ACHN ccRCC cell lines; test: PARP cleavage western blot (apoptosis); format: cell-based, human
Method: Protein extracts, electrophoresis, and membrane transfers were prepared as previously described (Copland J A, Marlow L A, Kurakata S, Fujiwara K, Wong A K, Kreinest P A, et al. Novel highaffinity PPARgamma agonist alone and in combination with paclitaxel inhibits human anaplastic thyroid carcinoma tumor growth via p21WAF1/CIP1. Oncogene. 2006; 25:2304-17). Primary antibodies included SCD1, PARP, DDIT3, BiP, sXBP1, and β-actin. A Supersignal chemiluminescent kit was used to perform detection.

In the case of `CNC(=O)c1cccc(NC(=O)N2CCC(Oc3ccccc3Cl)CC2)c1` [A939572], the growth inhibition [1] is reported as “growth inhibited in a dose dependent fashion”, the growth inhibition [2] is reported as “growth inhibited at only high levels” and the IC50 [3] is reported as 65 nM. The IC50 [4] was 50 nM, the IC50 [5] was 65 nM and the IC50 [6] was 6 nM. The “growth inhibition with addition of OA-BSA” value [7] was “prevented A939572 mediated growth inhibition”, the “expression of ER stress response genes associated with UPR” value [8] was “increased expression of ER stress response genes” and the “apoptosis by PARP cleavage with addition of OA-BSA” value ([9]; A939572 + OA-BSA) was “blocked apoptosis”. The “apoptosis by PARP cleavage” value ([9]; western blot, all four cell lines) was “induced apoptosis”.
